Reference: article PMC11537054, “A conserved two-component system senses intracellular iron levels and regulates redox balance in Mycobacterium spp” (Microbiology Spectrum, 2024)

Target: PdtaS (PdtaS-eGFP) (Mycobacterium tuberculosis, UniProt P9WGL5)
Assay: biochemical

PdtaS (PdtaS-eGFP), sequence (P9WGL5 whole entry): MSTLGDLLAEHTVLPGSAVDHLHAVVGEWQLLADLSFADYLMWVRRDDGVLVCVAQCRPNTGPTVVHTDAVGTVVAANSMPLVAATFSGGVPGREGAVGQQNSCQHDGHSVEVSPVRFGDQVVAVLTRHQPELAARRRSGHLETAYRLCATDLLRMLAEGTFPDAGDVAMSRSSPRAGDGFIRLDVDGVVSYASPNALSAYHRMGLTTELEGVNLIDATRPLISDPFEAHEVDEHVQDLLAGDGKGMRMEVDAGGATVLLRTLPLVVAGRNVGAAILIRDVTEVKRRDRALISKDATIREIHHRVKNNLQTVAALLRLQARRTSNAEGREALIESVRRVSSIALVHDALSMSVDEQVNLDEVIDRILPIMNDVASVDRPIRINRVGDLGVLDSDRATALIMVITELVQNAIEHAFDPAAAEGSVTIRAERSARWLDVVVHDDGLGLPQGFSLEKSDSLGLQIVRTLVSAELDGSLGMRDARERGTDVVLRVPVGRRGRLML

Compound: C=CC1=C(C)C2=Cc3c(C=C)c(C)c4[n]3[Fe]([Cl])[n]3c(c(C)c(CCC(=O)O)c3=CC3=NC(=C4)C(C)=C3CCC(=O)O)=CC1=N2 [hemin]
- Kd: ~0.0172 µM
